Experimental data published in paper PMC7915588, “Polyphyllin D Shows Anticancer Effect through a Selective Inhibition of Src Homology Region 2-Containing Protein Tyrosine Phosphatase-2 (SHP2)” (Molecules, 2021).

Target: T1, PTPN14 (PTP36) (Homo sapiens, UniProt Q15678)
T1 construct: 908-1187
T1 sequence (Q15678 1-1187): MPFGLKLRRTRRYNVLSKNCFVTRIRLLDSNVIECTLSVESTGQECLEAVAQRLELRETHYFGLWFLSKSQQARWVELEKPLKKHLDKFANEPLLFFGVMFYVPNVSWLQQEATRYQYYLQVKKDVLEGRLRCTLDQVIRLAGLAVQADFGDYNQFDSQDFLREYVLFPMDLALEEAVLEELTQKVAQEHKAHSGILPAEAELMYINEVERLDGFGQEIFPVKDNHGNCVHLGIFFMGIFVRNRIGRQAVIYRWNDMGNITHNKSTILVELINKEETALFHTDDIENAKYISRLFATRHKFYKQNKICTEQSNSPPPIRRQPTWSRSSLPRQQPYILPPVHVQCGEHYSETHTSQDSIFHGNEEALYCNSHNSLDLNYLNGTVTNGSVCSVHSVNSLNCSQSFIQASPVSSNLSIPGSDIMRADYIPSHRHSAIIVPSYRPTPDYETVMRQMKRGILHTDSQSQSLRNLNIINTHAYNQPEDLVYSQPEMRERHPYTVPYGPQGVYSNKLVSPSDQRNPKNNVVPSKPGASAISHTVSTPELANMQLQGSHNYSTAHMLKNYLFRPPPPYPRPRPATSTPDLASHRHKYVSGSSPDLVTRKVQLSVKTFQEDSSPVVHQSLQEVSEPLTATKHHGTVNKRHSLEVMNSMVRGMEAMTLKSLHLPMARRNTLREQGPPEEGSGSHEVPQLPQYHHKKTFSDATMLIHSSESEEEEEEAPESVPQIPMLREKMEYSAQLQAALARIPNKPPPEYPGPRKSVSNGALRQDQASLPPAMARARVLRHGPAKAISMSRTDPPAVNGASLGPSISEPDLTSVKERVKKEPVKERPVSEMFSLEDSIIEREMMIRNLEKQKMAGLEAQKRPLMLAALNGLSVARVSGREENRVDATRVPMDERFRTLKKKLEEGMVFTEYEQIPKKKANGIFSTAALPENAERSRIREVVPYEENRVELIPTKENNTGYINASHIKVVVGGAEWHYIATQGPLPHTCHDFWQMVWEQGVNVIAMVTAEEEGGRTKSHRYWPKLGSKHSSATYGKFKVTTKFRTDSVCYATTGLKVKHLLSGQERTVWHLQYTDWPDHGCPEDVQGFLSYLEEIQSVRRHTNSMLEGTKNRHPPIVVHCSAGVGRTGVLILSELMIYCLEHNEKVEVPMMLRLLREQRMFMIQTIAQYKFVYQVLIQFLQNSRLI
Experiment: biochemical
Parameters: Fluorogenic phosphatase assay, DiFMUP hydrolysis by recombinant PTPs, initial velocity, Ex/Em 355/460 nm
Conditions: read-out: Inhibition by 20 µM polyphyllin D (%)

Work on `C[C@@H]1CC[C@@]2(OC1)O[C@H]1C[C@H]3[C@@H]4CC=C5C[C@@H](O[C@@H]6O[C@H](CO)[C@@H](O[C@@H]7O[C@@H](CO)[C@H](O)[C@H]7O)[C@H](O)[C@H]6O[C@@H]6O[C@@H](C)[C@H](O)[C@@H](O)[C@H]6O)CC[C@]5(C)[C@H]4CC[C@]3(C)[C@H]1[C@@H]2C` [polyphyllin D] yielded an inhibition at 20 µM of 0%.
